Converted amounts (≈) assume the structure as drawn.
Legend:
S. aureus (ATCC 29213) = assay: Antibacterial susceptibility testing (MIC, broth microdilution or agar dilution), S. aureus; type: cell-based; conditions: Staphylococcus aureus, ATCC29213; read-out: S. aureus (ATCC 29213) minimal inhibitory concentration (MIC)
Summary of the method: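 MICs by CLSI (M7-A7) broth microdilution or agar dilution, against reference ATCC strains as listed.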

E. faecalis (ATCC 29212) = assay: Antibacterial susceptibility testing (MIC, broth microdilution or agar dilution), E. faecalis; type: cell-based; conditions: Enterococcus faecalis, ATCC29212; read-out: E. faecalis (ATCC 29212) minimal inhibitory concentration (MIC)
Description: Compounds of the invention were tested for antimicrobial activity by susceptibility testing in liquid or on solid media. MICs for compounds against each strain were determined by the broth microdilution or agar dilution method according to the guidelines of the Clinical Laboratories and Standards Institute, formerly the National Committee for Clinical Laboratory Standards (Clinical Laboratories and Standards Institute. Methods for Dilution Antimicrobial Susceptibility Tests for Bacteria That Grow Aerobically; Approved Standard—Seventh Edition. Document M7-A7. CLSI, Wayne, Pa., 2006; Clinical Laboratories and Standards Institute. The Gram positive bacterial strains tested include S. aureus (Staphylococcus aureus (Isolate ID ATCC 29213)), E. faecalis (Enterococcus faecalis (Isolate ID ATCC 29212)) and S. pyogenes (Streptococcus pyogenes (Isolate ID ATCC 51339)). The Gram negative bacterial strains tested include H. influenzae (Haemophilus influenzae (Isolate ID ATCC 49247)).

SMILES | MIC (S. aureus (ATCC 29213)) [mg/L] | MIC (E. faecalis (ATCC 29212)) [mg/L]
CCNC(=O)Nc1cc(Nc2ccc(F)cc2)c(C(=O)Nc2ccc(CN3CCCC3)cc2)cn1 [Compound 200, 6-[(ethylcarbamoyl)amino]-4-[(4-fluorophenyl)amino]-N-[4-(pyrrolidin-1-ylmethyl)phenyl]pyridine-3-carboxamide] | 8 (≈ 16.8 µM) | 2 (≈ 4.2 µM)
CCNC(=O)Nc1cc(Nc2ccc(F)cc2)c(C(=O)Nc2ccc(CN3CCOCC3)cc2)cn1 [Compound 201, 6-[(ethylcarbamoyl)amino]-4-[(4-fluorophenyl)amino]-N-[4-(morpholin-4-ylmethyl)phenyl]pyridine-3-carboxamide] | 2 (≈ 4.06 µM) | ≤ 1
CCNC(=O)Nc1cc(Nc2ccc(F)cc2)c(C(=O)Nc2ccc(CN3CCN(C)CC3)cc2)cn1 [Compound 202, 6-[(ethylcarbamoyl)amino]-4-[(4-fluorophenyl)amino]-N-{4-[(4-methylpiperazin-1-yl)methyl]phenyl}pyridine-3-carboxamide] | 8 (≈ 15.8 µM) | 2 (≈ 3.96 µM)
CCNC(=O)Nc1cc(Nc2ccc(C#N)cc2)c(C(=O)Nc2ccc(CN3CCCC3)cc2)cn1 [Compound 203, 4-[(4-cyanophenyl)amino]-6-[(ethylcarbamoyl)amino]-N-[4-(pyrrolidin-1-ylmethyl)phenyl]pyridine-3-carboxamide] | 2 (≈ 4.14 µM) | ≤ 1
CCNC(=O)Nc1cc(Nc2ccccc2)c(C(=O)Nc2ccc(CP(=O)(O)O)cc2)cn1 [Compound 207, {4-[({6-[(ethylcarbamoyl)amino]-4-(phenylamino)pyridin-3-yl}carbonyl)amino]benzyl}phosphonic acid] |  | 8 (≈ 17 µM)
CCNC(=O)Nc1cc(Nc2ccccc2)c(C(=O)Nc2ccccc2)nn1 [Compound 212, 6-[(ethylcarbamoyl)amino]-N-phenyl-4-(phenylamino)pyridazine-3-carboxamide] |  | 8 (≈ 21.3 µM)
CCNC(=O)Nc1cc(Nc2cccc(F)c2)c(C(=O)Nc2ccc(CCC(=O)OCC)cc2)cn1 [Compound 216, ethyl 3-{4-[({6-[(ethylcarbamoyl)amino]-4-[(3-fluorophenyl)amino]pyridin-3-yl}carbonyl)amino]phenyl}propanoate] |  | ≤ 1
CCNC(=O)Nc1cc(Nc2ccc(C)c(F)c2)c(C(=O)Nc2ccc(CCC(=O)OCC)cc2)cn1 [Compound 217, ethyl 3-{4-[({6-[(ethylcarbamoyl)amino]-4-[(3-fluoro-4-methylphenyl)amino]pyridin-3-yl}carbonyl)amino]phenyl}propanoate] |  | ≤ 1
CCNC(=O)Nc1cc(Nc2ccc(F)c(C)c2)c(C(=O)Nc2ccc(CCC(=O)OCC)cc2)cn1 [Compound 218, ethyl 3-{4-[({6-[(ethylcarbamoyl)amino]-4-[(4-fluoro-3-methylphenyl)amino]pyridin-3-yl}carbonyl)amino]phenyl}propanoate] |  | ≤ 1
CCNC(=O)Nc1cc(Nc2ccc(Cl)cc2F)c(C(=O)Nc2ccc(CCC(=O)OCC)cc2)cn1 [Compound 219, ethyl 3-{4-[({4-[(4-chloro-2-fluorophenyl)amino]-6-[(ethylcarbamoyl)amino]pyridin-3-yl}carbonyl)amino]phenyl}propanoate] |  | ≤ 1
CCNC(=O)Nc1cc(Nc2ccc(F)cc2F)c(C(=O)Nc2ccc(CCC(=O)OCC)cc2)cn1 [Compound 227] |  | ≤ 1
CCNC(=O)Nc1cc(Nc2ccccc2)c(C(=O)Nc2ccn(CC(=O)O)n2)cn1 [Compound 233, {3-[({6-[(ethylcarbamoyl)amino]-4-(phenylamino)pyridin-3-yl}carbonyl)amino]-1H-pyrazol-1-yl}acetic acid] |  | 2 (≈ 4.72 µM)
CCNC(=O)Nc1cc(Nc2cc(F)cc(F)c2)c(C(=O)Nc2ccc(CCC(=O)OCC)cc2)cn1 [Compound 234, ethyl 3-{4-[({4-[(3,5-difluorophenyl)amino]-6-[(ethylcarbamoyl)amino]pyridin-3-yl}carbonyl)amino]phenyl}propanoate] |  | ≤ 1

From patent publication US9060515B2, “Heterocyclic urea compounds” (BIOTA EUROPE LTD, priority 2011, dated 2015)
